Experimental data reported in patent publication US20190119193A1, “COMPOSITION FOR REGULATING PLANT GROWTH, METHOD FOR TREATING PLANTS THEREWITH, AND ACTIVE INGREDIENT THEREOF” (Ivan Aleksandrovich Starikov, priority 2016, published 2019).

Test system: spring wheat of “Lubava” variety
Assay: Field tests of DMOA and DEOA on wheat
Assay type: in vivo
Conditions: for Effect on wheat growth, yield and quality (in words): aqueous solutions in the proposed concentrations, field test under stress (abundant rainfalls)
Method: After that DMOA and DEOA were separately dissolved in dimethyl sulfoxide to give solutions of 10 g/L concentration, then water was added to give aqueous solutions of DMOA with the concentrations of 5.5·10^−8 M, 5.5·10^−9 M, 1.8·10^−9 M, 5.5·10^−10 M, 1.8·10^−10 M, 1.8·10^−11 M, and DEOA with the concentrations of 4.8·10^−8 M, 4.8·10^−9 M, […], 4.8·10^−10 M, 1.6·10^−10 M, 1.6·10^−11 M.
The field tests of the obtained aqueous solutions of DMOA and DEOA on spring wheat of “Lubava” variety were carried out. The tests were carried out in agroclimatic zone I, on the experimental field of the Grain Crops Protection Systems Laboratory of the Agricultural Research Center of Federal State Budgetary Scientific Institution “Moscow Research Institute of Agriculture” “Nemchinovka” “(Moscow Region, Odintsovo district, settlement Novoivanovskaya, 2015) according to the method adopted for registration tests of plant growth regulators (Guidelines for conducting registration tests of new forms of fertilizers, bioregulators and plant regulators. Moscow-Vladimir, 2009, p. 104; The method of state variety testing of agricultural crops. Grain, cereal, grain legumes and forage crops. Issue 1, Moscow, 1985, page 269, Issue 2, Moscow, 1989, p. 194; OST 10-108-87; GOST 26212-91; GOST-91).
The soil of the experimental field is sod-podzolic on clay loam mantle.
Tests were conducted starting from Apr. 29 to Jul. 30, 2015. In the first half of the growing period the weather conditions were unfavorable (abundant rainfalls in May and June), which is a significant stress factor.
Control test—without growth regulators treatment.
Area of experimental plots—100 m^2, accounting area—50 m^2. Fourfold replication of the experiments.
Preceding crop was winter wheat. Immediately after the autumn harvesting of winter crops the area was treated with disc harrow to a depth of 10-12 cm. Then, fall plowing to a depth of 18-20 cm by a reverse plow, harrowing, and moisture conservation were carried out.
Before seeding the test crop, the soil was fertilized with nitrogen-phosphorus-potassium fertilizer in a dose of N64P64K64. Date of sowing: Apr. 29, 2015 Seeding rate: 5.0 million of germinated grains per 1 hectare.
Before seeding, all the seeds were treated with “Vincite Forte” fungicide with a consumption rate of 1.0 L per ton of seeds, as well as the aqueous solution of DMOA or DEOA selected for the experiment with a consumption rate of 10 L per ton of seeds (this aqueous solution was directly used as a liquid for treatment) or without a growth regulator, depending on the experiment. The following concentrations of the test solutions were used for treatment: 5.5·10^−8 M, 5.5·10^−9 M and 5.5·10^−10 M of DMOA; 4.8·10^−8 M, 4.8·10^−9 M and 4.8·10^−10 M of DEOA.
At the tillering phase (May 23) the crops were sprayed against weeds with “Linthur” herbicide at a dose of 175.0 g/ha, pesticides “BI-58 Novy” were used against pests at a dose of 0.5 L/ha, and against the leaf-stems diseases the crops were sprayed at the early ear emergence stage (June 20) with “Alto Super” fungicide at a dose of 0.5 L/ha together with aqueous solutions of DMOA or DEOA (or without them). Spraying with aqueous solutions of DMOA or DEOA allows to additionally stimulate plant growth. In this case the dosage of aqueous solutions of DMEA or DEOA was 300 L/ha (these solutions were sprayed directly). Spraying with aqueous solutions of DMEA and DEOA was carried out for all variants, where DMOA and DEOA were used for seed treatment. The concentration of the spraying solution was one-thirtieth of the concentration of the solution previously used for treatment of seeds. Accordingly, for DMOA: 1.8·10^−9 M, 1.8·10^−10 M, 1.8·10^−11 M; and for DEOA: 1.6·10^−9 M, 1.6·10^−10 M, 1.6·10^−11 M.
Harvesting of experimental plots was carried out on July 30, before harvesting test sheaves of 0.25 m^2 of each variant of the experiment were taken for structural analysis. […]

[1] = seeds treated 4.8 · 10^−8M, sprayed 1.6·10^−9 M
[2] = seeds treated 4.8 · 10^−9M, sprayed 1.6·10^−10 M
[3] = seeds treated 4.8 · 10^−10M, sprayed 1.6·10^−11 M
[4] = seeds treated 5.5 · 10^−8M, sprayed 1.8·10^−9 M
[5] = seeds treated 5.5 · 10^−9M, sprayed 1.8·10^−10 M
[6] = seeds treated 5.5 · 10^−10M, sprayed 1.8·10^−11 M

CCOC(=O)C=C([O-])C(=O)OCC.[Na+] [DEOA, sodium salt of diethyl ester of oxaloacetic acid]
Effect on wheat growth, yield and quality (in words): express ability to stimulate growth, increase yield and quality of wheat | 1000 grains weight [1]: 48.15 g | Gluten [1]: 31.85 % dry basis | Main head length [1]: 8.6 cm | Number of grains from main head [1]: 39 pcs | Number of stems [1]: 612 pcs/m^2 | Plant height [1]: 101.7 cm | Productive tilling capacity [1]: 1.34 | Protein (N 5.7) [1]: 14.88 % dry basis | Starch [1]: 61.15 % dry basis | Weight of grains from main head [1]: 1.91 g | Yield [1]: 5.50 t/ha | Yield, % (comparing to control) [1]: 112.7% | 1000 grains weight [2]: 46.88 g | Gluten [2]: 32.91 % dry basis | Main head length [2]: 9.2 cm | Number of grains from main head [2]: 41 pcs | Number of stems [2]: 408 pcs/m^2 | Plant height [2]: 99.4 cm | Productive tilling capacity [2]: 1.33 | Protein (N 5.7) [2]: 14.95 % dry basis | Starch [2]: 61.43 % dry basis | Weight of grains from main head [2]: 1.96 g | Yield [2]: 5.32 t/ha | Yield, % (comparing to control) [2]: 109.0% | 1000 grains weight [3]: 48.38 g | Gluten [3]: 31.61 % dry basis | Main head length [3]: 10.8 cm | Number of grains from main head [3]: 51 pcs | Number of stems [3]: 324 pcs/m^2 | Plant height [3]: 104.3 cm | Productive tilling capacity [3]: 1.69 | Protein (N 5.7) [3]: 14.14 % dry basis | Starch [3]: 61.60 % dry basis | Weight of grains from main head [3]: 2.65 g | Yield [3]: 5.00 t/ha | Yield, % (comparing to control) [3]: 102.5%

Sodium salt of dimethyl ester of oxaloacetic acid [DMOA]
Effect on wheat growth, yield and quality (in words): express ability to stimulate growth, increase yield and quality of wheat | 1000 grains weight [4]: 46.22 g | Gluten [4]: 33.64 % dry basis | Main head length [4]: 8.7 cm | Number of grains from main head [4]: 36 pcs | Number of stems [4]: 420 pcs/m^2 | Plant height [4]: 101.5 cm | Productive tilling capacity [4]: 1.57 | Protein (N 5.7) [4]: 14.88 % dry basis | Starch [4]: 61.54 % dry basis | Weight of grains from main head [4]: 1.76 g | Yield [4]: 6.44 t/ha | Yield, % (comparing to control) [4]: 131.9% | 1000 grains weight [5]: 47.07 g | Gluten [5]: 34.71 % dry basis | Main head length [5]: 8.9 cm | Number of grains from main head [5]: 37 pcs | Number of stems [5]: 752 pcs/m^2 | Plant height [5]: 105.1 cm | Productive tilling capacity [5]: 1.21 | Protein (N 5.7) [5]: 14.92 % dry basis | Starch [5]: 61.72 % dry basis | Weight of grains from main head [5]: 1.79 g | Yield [5]: 6.49 t/ha | Yield, % (comparing to control) [5]: 133.0% | 1000 grains weight [6]: 46.51 g | Gluten [6]: 33.81 % dry basis | Main head length [6]: 8.8 cm | Number of grains from main head [6]: 37 pcs | Number of stems [6]: 396 pcs/m^2 | Plant height [6]: 104.1 cm | Productive tilling capacity [6]: 1.48 | Protein (N 5.7) [6]: 14.73 % dry basis | Starch [6]: 61.27 % dry basis | Weight of grains from main head [6]: 1.71 g | Yield [6]: 6.41 t/ha | Yield, % (comparing to control) [6]: 131.4%
